Experimental data from patent publication US8410310B2, “Trypsin-like serine protease inhibitors, and their preparation and use” (The Medicines Company (Leipzig) GmbH, priority 2006, dated 2013).
Where two headings read alike, the source gives them in different places.

Tests used:
Type in all cases: biochemical
[1] = target: plasmin (Homo sapiens, UniProt P00747); assay: Determination of inhibition constants for plasmin; parameters: purchased Calbiochem
Method: (§1) The inhibitory effect for the individual enzymes was determined in analogy to a previously disclosed method (Stürzebecher et al., 1997).
(§2) For zero order kinetics, the reaction was stopped after 20 min by adding 25 μl of acetic acid (50% v/v), and the absorption at 405 nm was determined using a Microplate Reader (Multiscan Ascent, from Thermo). In the case of pseudo-first order kinetics, the reaction rates in the equilibrium state were ascertained by recording the reaction kinetics. The Ki values were ascertained either in accordance with Dixon (1953) by linear regression using a computer program or by parameter fitting in accordance with the rate equation for competitive inhibition. The Ki values are the average of at least two determinations.

[2] = target: Thrombin (Homo sapiens, UniProt P00734); assay: Determination of inhibition constants for thrombin
Method: as §1, §2

[3] = target: Xa (Homo sapiens, UniProt P00742); assay: Determination of inhibition constants for Xa
Xa, sequence (P00742 235-488 limits assumed): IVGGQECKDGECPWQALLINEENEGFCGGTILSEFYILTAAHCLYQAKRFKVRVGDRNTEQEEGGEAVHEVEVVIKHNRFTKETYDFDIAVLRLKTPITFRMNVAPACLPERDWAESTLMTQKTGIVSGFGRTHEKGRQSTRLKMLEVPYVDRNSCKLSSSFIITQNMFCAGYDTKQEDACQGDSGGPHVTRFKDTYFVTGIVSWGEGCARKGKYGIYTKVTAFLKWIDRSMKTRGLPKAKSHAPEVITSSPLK
Xa, sequence (P00742 41-179 limits assumed): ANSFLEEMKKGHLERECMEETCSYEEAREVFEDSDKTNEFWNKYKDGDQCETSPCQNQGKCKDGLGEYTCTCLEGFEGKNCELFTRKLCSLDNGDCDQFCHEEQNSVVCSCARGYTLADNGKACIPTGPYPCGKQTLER
Method: as §1, §2

[4] = target: plasma kallikrein (Homo sapiens, UniProt P03952); assay: Determination of inhibition constants for PK; parameters: purchased Enzyme Research Lab. / Enzyme Research Laboratories
plasma kallikrein, sequence (P03952 391-638 limits assumed): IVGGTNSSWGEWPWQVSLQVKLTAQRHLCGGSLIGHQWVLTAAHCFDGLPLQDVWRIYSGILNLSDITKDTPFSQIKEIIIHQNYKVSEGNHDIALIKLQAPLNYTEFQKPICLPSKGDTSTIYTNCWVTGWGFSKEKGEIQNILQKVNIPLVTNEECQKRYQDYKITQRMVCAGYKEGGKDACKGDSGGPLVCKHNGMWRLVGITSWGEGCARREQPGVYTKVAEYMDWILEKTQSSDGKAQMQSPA
plasma kallikrein, sequence (P03952 20-390 partner limits assumed): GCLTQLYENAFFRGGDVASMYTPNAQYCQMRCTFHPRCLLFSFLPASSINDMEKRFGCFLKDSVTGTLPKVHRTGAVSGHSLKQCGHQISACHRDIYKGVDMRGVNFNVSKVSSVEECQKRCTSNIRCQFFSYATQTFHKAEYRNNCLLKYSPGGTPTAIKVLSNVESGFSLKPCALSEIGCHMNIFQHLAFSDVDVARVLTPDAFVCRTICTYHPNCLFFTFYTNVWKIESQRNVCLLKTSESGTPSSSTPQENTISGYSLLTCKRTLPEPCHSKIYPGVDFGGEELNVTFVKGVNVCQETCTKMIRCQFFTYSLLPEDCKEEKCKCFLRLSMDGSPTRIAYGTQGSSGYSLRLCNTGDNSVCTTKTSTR
Method: as §1, §2

[5] = 25° C., substrate Chromozym PL, pH 8.0, read-out: Plasmin [Ki]
[6] = 25° C., substrate S2302, pH 8.0, read-out: PK [Ki]
[7] = summary of results, read-out: Ki value of the plasmin inhibition
[8] = summary of results, read-out: Ki value of the plasma kallikrein inhibition

plasmin, sequence (P00747 581-810 limits assumed): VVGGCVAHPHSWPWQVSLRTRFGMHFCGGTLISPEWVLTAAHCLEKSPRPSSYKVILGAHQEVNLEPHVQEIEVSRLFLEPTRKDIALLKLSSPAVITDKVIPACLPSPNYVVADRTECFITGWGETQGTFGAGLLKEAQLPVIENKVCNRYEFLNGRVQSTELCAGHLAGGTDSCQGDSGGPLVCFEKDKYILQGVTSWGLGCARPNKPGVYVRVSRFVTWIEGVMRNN
plasmin, sequence (P00747 97-580 partner limits assumed): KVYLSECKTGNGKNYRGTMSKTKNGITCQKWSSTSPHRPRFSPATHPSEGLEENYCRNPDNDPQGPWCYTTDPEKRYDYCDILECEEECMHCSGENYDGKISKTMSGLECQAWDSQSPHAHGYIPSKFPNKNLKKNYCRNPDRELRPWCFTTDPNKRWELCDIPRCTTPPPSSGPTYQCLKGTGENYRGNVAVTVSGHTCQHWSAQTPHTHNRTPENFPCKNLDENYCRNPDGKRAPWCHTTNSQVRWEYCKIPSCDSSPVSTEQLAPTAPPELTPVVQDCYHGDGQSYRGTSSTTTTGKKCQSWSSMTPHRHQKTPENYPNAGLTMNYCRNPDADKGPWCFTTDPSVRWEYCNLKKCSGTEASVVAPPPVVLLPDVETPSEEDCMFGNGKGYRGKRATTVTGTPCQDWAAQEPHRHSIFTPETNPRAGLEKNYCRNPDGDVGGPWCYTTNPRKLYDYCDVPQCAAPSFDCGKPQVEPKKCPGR

| Compound | Ki [1, 5] [nM] | Ki [2] [nM] | Ki [3] [nM] | Ki [4, 6] [nM] | Ki [1, 7] [nM] | Ki [4, 8] [nM] |
| --- | --- | --- | --- | --- | --- | --- |
| CC(C)(C)OC[C@@H](NS(=O)(=O)Cc1ccccc1)C(=O)N[C@@H](CCc1cccc(CN)c1)C(=O)NCc1ccc(C(=N)N)cc1 [compound 73] | < 100 | < 100 | < 1000 | < 100 |  |  |
| N=C(N)c1ccc(CNC(=O)[C@H](CCc2ccncc2)NC(=O)[C@H](NS(=O)(=O)Cc2ccccc2)C2Cc3ccccc3C2)cc1 [compound 46] | < 10 | < 100 | < 1000 | < 10 | < 5 |  |
| N=C(N)c1ccc(CNC(=O)[C@H](Cc2cccc(CN)c2)NC(=O)[C@@H](CCCc2ccccc2)NS(=O)(=O)Cc2ccc(C(=O)O)cc2)cc1 [compound 2] | < 10 | < 1000 | < 100 | < 10 |  |  |
| N=C(N)c1ccc(CNC(=O)[C@H](CCc2ccc(CN)cc2)NC(=O)[C@@H](CCCc2ccccc2)NS(=O)(=O)Cc2ccccc2)cc1 [compound 31] | < 10 | < 100 | < 1000 | < 100 |  |  |
| N=C(N)c1ccc(CNC(=O)[C@H](Cc2cccc(CN)c2)NC(=O)[C@@H](Cc2ccc(-c3ccccc3)cc2)NS(=O)(=O)Cc2ccccc2)cc1 [compound 14] | < 10 | < 1000 | < 100 | < 10 | < 5 |  |
| N=C(N)c1ccc(CNC(=O)[C@H](Cc2cccc(CN)c2)NC(=O)[C@@H](CCCc2ccc(Cl)cc2)NS(=O)(=O)Cc2ccccc2)cc1 [compound 7] | < 10 | < 100 | < 10 | < 10 |  |  |
| N=C(N)c1ccc(CNC(=O)[C@H](CCc2cccc(CN)c2)NC(=O)[C@@H](CO)NS(=O)(=O)Cc2ccccc2)cc1 [compound 74] | < 100 | > 1000 | > 1000 | < 100 |  |  |
| N=C(N)c1ccc(CNC(=O)[C@H](Cc2cccc(CN)c2)NC(=O)[C@@H](Cc2ccc3ccccc3c2)NS(=O)(=O)Cc2ccccc2)cc1 [compound 17] | < 10 | < 1000 | < 100 | < 10 |  |  |
| N=C(N)c1ccc(CNC(=O)[C@H](CCc2ccncc2)NC(=O)[C@@H](CCCc2ccccc2)NS(=O)(=O)Cc2cccc(C(=O)O)c2)cc1 [compound 40] | < 10 | < 100 | < 1000 | < 10 |  | < 1 |
| N=C(N)c1ccc(CNC(=O)[C@H](CCc2ccccc2)NC(=O)[C@@H](CCCc2ccc[n+]([O-])c2)NS(=O)(=O)Cc2ccccc2)cc1 [compound 55] | < 10 | < 100 | < 10 | < 10 |  |  |
| N=C(N)c1ccc(CNC(=O)[C@H](Cc2ccc(CN)cc2)NC(=O)[C@@H](CCCc2ccccc2)NS(=O)(=O)Cc2ccccc2)cc1 [compound 28] | < 10 | < 1000 | < 1000 | < 10 |  |  |
| N=C(N)c1ccc(CNC(=O)[C@H](CCc2cc[n+]([O-])cc2)NC(=O)[C@@H](CCCc2ccccc2)NS(=O)(=O)Cc2cccc(C(=O)O)c2)cc1 [compound 42] | < 100 | < 1000 | > 1000 | < 10 |  |  |
| N=C(N)c1ccc(CNC(=O)[C@H](Cc2ccc(CN)cc2)NC(=O)[C@@H](CCCc2ccccc2)NS(=O)(=O)Cc2cccc(C(=O)O)c2)cc1 [compound 30] | < 10 | > 1000 | < 1000 | < 10 |  |  |
| N=C(N)c1ccc(CNC(=O)[C@H](CCc2ccccc2)NC(=O)[C@@H](CCCc2ccccc2)NS(=O)(=O)Cc2cccc(C(=O)O)c2)cc1 [compound 36] | < 10 | < 1000 | < 100 | < 10 |  |  |
| CC(C)(C)OC[C@@H](NS(=O)(=O)Cc1ccccc1)C(=O)N[C@@H](Cc1cccc(CN)c1)C(=O)NCc1ccc(C(=N)N)cc1 [compound 63] | < 10 | < 1000 | < 1000 | < 10 |  |  |
| N=C(N)c1ccc(CNC(=O)[C@H](CCc2ccccc2)NC(=O)[C@@H](CCCc2ccncc2)NS(=O)(=O)Cc2cccc(C(=O)O)c2)cc1 [compound 50] | < 10 | < 1000 | < 100 | < 10 |  |  |
| N=C(N)c1ccc(CNC(=O)[C@H](CCc2ccccc2)NC(=O)[C@@H](CCCc2ccc[n+]([O-])c2)NS(=O)(=O)Cc2cccc(C(=O)O)c2)cc1 [compound 56] | < 10 | < 1000 | < 10 | < 10 |  |  |
| N=C(N)c1ccc(CNC(=O)[C@H](CCc2ccncc2)NC(=O)[C@@H](CCc2ccc(O)cc2)NS(=O)(=O)Cc2ccccc2)cc1 [compound 47] | < 10 | < 10 | < 10 | < 10 |  |  |

| Compound | Ki [1, 5] [nM] | Ki [2] [nM] | Ki [3] [nM] | Ki [4, 6] [nM] | Ki [1, 7] [nM] | Ki [4, 8] [nM] |
| --- | --- | --- | --- | --- | --- | --- |
| N=C(N)c1ccc(CNC(=O)[C@H](CCc2ccccc2)NC(=O)[C@@H](CCc2ccc(O)cc2)NS(=O)(=O)Cc2ccccc2)cc1 [compound 27] | < 10 | < 1000 | < 10 | < 10 |  | < 1 |
| CC(C)(C)OC(=O)NCCCC[C@@H](NS(=O)(=O)Cc1ccc(C(=O)O)cc1)C(=O)N[C@@H](Cc1cccc(CN)c1)C(=O)NCc1ccc(C(=N)N)cc1 [compound 58] | < 100 | > 1000 | < 1000 | < 10 |  |  |
| N=C(N)c1ccc(CNC(=O)[C@H](CCc2ccccc2)NC(=O)[C@@H](CCCc2ccccc2)NS(=O)(=O)Cc2ccc(C(=O)O)cc2)cc1 [compound 35] | < 10 | < 1000 | < 1000 | < 10 | < 5 |  |
| N=C(N)c1ccc(CNC(=O)[C@H](Cc2cccc(CN)c2)NC(=O)[C@@H](Cc2cccc3ccccc23)NS(=O)(=O)Cc2ccccc2)cc1 [compound 15] | < 10 | < 100 | < 100 | < 10 |  |  |
| N=C(N)c1ccc(CNC(=O)[C@H](Cc2cccc(CN)c2)NC(=O)[C@@H](CCCc2ccc(OC(F)(F)F)cc2)NS(=O)(=O)Cc2ccccc2)cc1 [compound 12] | < 10 | < 1000 | < 100 | < 10 |  |  |
| COC(=O)c1cccc(CS(=O)(=O)N[C@H](COC(C)(C)C)C(=O)N[C@@H](Cc2cccc(CN)c2)C(=O)NCc2ccc(C(=N)N)cc2)c1 [compound 66] | < 10 | > 1000 | < 100 | < 10 |  |  |
| N=C(N)c1ccc(CNC(=O)[C@H](Cc2cccc(CN)c2)NC(=O)[C@@H](CO)NS(=O)(=O)Cc2ccc(C(=O)O)cc2)cc1 [compound 70] | < 100 | > 1000 | > 1000 | < 10 |  |  |
| N=C(N)c1ccc(CNC(=O)[C@H](CCc2ccncc2)NC(=O)[C@@H](CC2CCCCC2)NS(=O)(=O)Cc2ccccc2)cc1 [compound 43] | < 10 | < 10 | < 100 | < 100 |  |  |
| N=C(N)c1ccc(CNC(=O)[C@H](CCc2ccc(CN)cc2)NC(=O)[C@@H](CCc2ccc(O)cc2)NS(=O)(=O)Cc2ccccc2)cc1 [compound 26] | < 10 | < 1000 | < 10 | < 10 |  |  |
| N=C(N)c1ccc(CNC(=O)[C@H](CCc2ccccc2)NC(=O)[C@@H](CCCc2cc[n+]([O-])cc2)NS(=O)(=O)Cc2cccc(C(=O)O)c2)cc1 [compound 54] | < 10 | > 1000 | < 100 | < 10 |  |  |
| COC(=O)c1ccc(CS(=O)(=O)N[C@H](CO)C(=O)N[C@@H](Cc2cccc(CN)c2)C(=O)NCc2ccc(C(=N)N)cc2)cc1 [compound 69] | < 100 | > 1000 | > 1000 | < 10 |  |  |
| N=C(N)c1ccc(CNC(=O)[C@H](CCc2ccncc2)NC(=O)[C@@H](CCc2ccccc2)NS(=O)(=O)Cc2ccccc2)cc1 [compound 44] | < 100 | < 100 | < 100 | < 100 |  |  |
| N=C(N)c1ccc(CNC(=O)[C@H](CCc2ccccc2)NC(=O)[C@@H](CCCc2ccccc2)NS(=O)(=O)Cc2ccccc2)cc1 [compound 34] | < 10 | < 100 | < 1000 | < 10 |  |  |
| N=C(N)c1ccc(CNC(=O)[C@H](Cc2cccc(CN)c2)NC(=O)[C@@H](CN)NS(=O)(=O)Cc2ccccc2)cc1 [compound 61] | < 100 | > 1000 | > 1000 | < 10 |  |  |
| N=C(N)c1ccc(CNC(=O)[C@H](Cc2ccc(C(=N)N)cc2)NC(=O)[C@@H](CO)NS(=O)(=O)Cc2ccccc2)cc1 [compound 76] | < 100 | > 1000 | > 1000 | < 100 |  |  |
| N=C(N)c1ccc(CNC(=O)[C@H](Cc2cccc(CN)c2)NC(=O)[C@@H](Cc2ccc3ccccc3c2)NS(=O)(=O)Cc2cccc(C(=O)O)c2)cc1 [compound 18] | < 10 | > 1000 | < 100 | < 10 |  |  |
| N=C(N)c1ccc(CNC(=O)[C@H](CCc2ccccc2)NC(=O)[C@@H](CCCc2cccnc2)NS(=O)(=O)Cc2cccc(C(=O)O)c2)cc1 [compound 52] | < 10 | < 100 | < 10 | < 10 |  |  |
| N=C(N)c1ccc(CNC(=O)[C@H](Cc2cccc(CN)c2)NC(=O)[C@@H](Cc2ccc3ccccc3c2)NS(=O)(=O)Cc2ccc(C(=O)O)cc2)cc1 [compound 19] | < 10 | < 1000 | < 1000 | < 10 |  |  |
